Patent publication US12419890B2, “Administration of sumo-activating enzyme inhibitor and checkpoint inhibitors” (Takeda Pharmaceutical Company Limited, priority 2019, dated 2025)

Test system: WEHI-3 syngeneic mouse myelomonocytic leukemia-derived subcutaneous tumor
Assay: WEHI-3 Study 5: mouse WEHI-3 syngeneic tumor model, individual tumor volume
Type: in vivo
Conditions: Compound I-263a 7.5 mg/kg IV BIW till Day 14
Experimental: WEHI-3 Study 5: WEHI-3 is a mouse myelomonocytic leukemia cell line. WEHI-3 mouse syngeneic tumor model was generated by subcutaneous inoculation with 0.1×10^6 WEHI-3 cells (cell suspension) in 9 weeks old female BALB/c mice (SINO-British SIPPR/BK Lab Animal Ltd. Shanghai, China) in the flank. When the mean tumor volume reached approximately 30 mm^3, the animals were randomized into one vehicle control and five treatment groups (n=8/group). Mice were then dosed with 20% HPbCD or Compound I-263a or anti-mouse PD-1 antibody or anti-mouse CTLA-4 antibody over a 21-day period. Tumor growth and body weight were measured twice per week during the treatment and post-treatment periods, and mice were humanely euthanized once they had reached their humane endpoint.
Study 5: A 0.75 mg/mL stock solution of Compound I-263a was formulated weekly in 20% HPβCD and administered intravenously (IV) based on exact animal body weight on each day of treatment, using a dosing volume of 10 mL/kg body weight. Final doses received were 7.5 mg/kg. Dosing volume for Compound I-263a was 0.2 mL. Anti-mouse PD1 antibody (anti-mPD-1) (Bio X Cell, 10 Technology Drive, Suite 2B, West Lebanon, NH 03784) was formulated prior to each injection at 2.0 mg/mL in Phosphate-buffered saline (PBS) and administered intraperitoneally (IP) based on exact body weight on each day of treatment, using a dosing volume of 5 mL/kg resulting in a 10 mg/kg dose. Dosing volume for anti-mPD-1 was 0.1 mL. Anti-mouse CTLA-4 antibody (anti-mCTLA-4) (Bio X Cell, 10 Technology Drive, Suite 2B, West Lebanon, NH 03784) was formulated prior to each injection at 2.0 mg/mL in Phosphate-buffered saline (PBS) and administered intraperitoneally (IP) based on exact body weight on each day of treatment, using a dosing volume of 5 mL/kg resulting in a 10 mg/kg dose. […]
Tumors were measured twice weekly using vernier calipers. Tumor volumes were calculated using standard equation: V=W^2×L/2, where V=volume, W=width, and L=length for the tumor. […] Tumor size and body weight were measured twice a week for the duration of the study. […]

Cc1sc(C(=O)c2cncnc2N[C@@H]2C[C@H](COS(N)(=O)=O)[C@@H](O)C2)cc1[C@@H]1NCCc2ccc(Cl)cc21 [Compound I-263a, [(1R,2S,4R)-4-{[5-({4-[(1R)-7-chloro-1,2,3,4-tetrahydroisoquinolin-1-yl]-5-methyl-2-thienyl}carbonyl)pyrimidin-4-yl]amino}-2-hydroxycyclopentyl]methyl sulfamate]
tumor growth inhibition / antitumor activity relative to vehicle (anti-mPD-1 10 mg/kg IP BIW till Day 10, anti-mCTLA-4 10 mg/kg IP Q4D till Day 8, 8 tumors/group): modest inhibition
tumor growth delays (delay to 11-14 days): one
tumors with slight tumor growth delay (delays to 7-11 days, of the 8 implanted tumors): 6
